Where two headings read alike, the source gives them in different places.
Assays:
Assay type in all cases: cell-based
[1] = biological target: T1, protein kinases (human kinome) (Homo sapiens, UniProt Q4G0N4); details: Accession Q4GON4, direction down
T1 sequence (Q4G0N4 63-442): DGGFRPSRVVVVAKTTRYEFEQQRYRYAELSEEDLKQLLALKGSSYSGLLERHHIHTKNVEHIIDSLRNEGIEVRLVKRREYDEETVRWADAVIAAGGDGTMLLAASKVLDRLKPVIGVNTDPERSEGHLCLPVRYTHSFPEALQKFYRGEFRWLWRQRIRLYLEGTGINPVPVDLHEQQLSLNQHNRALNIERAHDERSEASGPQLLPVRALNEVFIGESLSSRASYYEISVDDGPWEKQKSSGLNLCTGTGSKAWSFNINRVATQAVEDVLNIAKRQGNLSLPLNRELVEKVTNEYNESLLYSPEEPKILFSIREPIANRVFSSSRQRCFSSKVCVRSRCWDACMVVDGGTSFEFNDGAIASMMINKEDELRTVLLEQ

[2] = biological target: T2, protein kinases (human kinome) (Homo sapiens, UniProt Q969Z0); details: Accession Q969Z0-1, direction down
T2 sequence (Q969Z0 108-631): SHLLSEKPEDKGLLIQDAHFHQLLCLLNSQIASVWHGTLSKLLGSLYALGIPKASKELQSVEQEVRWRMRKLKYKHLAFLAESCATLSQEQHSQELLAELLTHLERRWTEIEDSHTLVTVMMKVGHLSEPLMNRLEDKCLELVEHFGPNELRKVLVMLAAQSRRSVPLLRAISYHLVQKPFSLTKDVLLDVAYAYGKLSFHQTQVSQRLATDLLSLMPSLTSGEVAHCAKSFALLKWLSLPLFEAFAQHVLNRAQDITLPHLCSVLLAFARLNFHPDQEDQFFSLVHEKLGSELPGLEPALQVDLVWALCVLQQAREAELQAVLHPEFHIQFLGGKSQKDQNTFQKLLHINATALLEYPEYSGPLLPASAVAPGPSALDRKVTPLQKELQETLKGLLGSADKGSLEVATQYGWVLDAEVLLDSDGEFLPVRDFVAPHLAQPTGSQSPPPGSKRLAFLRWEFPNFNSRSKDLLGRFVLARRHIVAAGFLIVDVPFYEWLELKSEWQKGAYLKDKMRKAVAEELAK

[3] = biological target: protein kinases (human kinome) (Homo sapiens, UniProt P51812); details: RPS6KA3 (P51812), experiment wp076
protein kinases (human kinome) (Homo sapiens, UniProt P51812), sequence (P51812 whole entry): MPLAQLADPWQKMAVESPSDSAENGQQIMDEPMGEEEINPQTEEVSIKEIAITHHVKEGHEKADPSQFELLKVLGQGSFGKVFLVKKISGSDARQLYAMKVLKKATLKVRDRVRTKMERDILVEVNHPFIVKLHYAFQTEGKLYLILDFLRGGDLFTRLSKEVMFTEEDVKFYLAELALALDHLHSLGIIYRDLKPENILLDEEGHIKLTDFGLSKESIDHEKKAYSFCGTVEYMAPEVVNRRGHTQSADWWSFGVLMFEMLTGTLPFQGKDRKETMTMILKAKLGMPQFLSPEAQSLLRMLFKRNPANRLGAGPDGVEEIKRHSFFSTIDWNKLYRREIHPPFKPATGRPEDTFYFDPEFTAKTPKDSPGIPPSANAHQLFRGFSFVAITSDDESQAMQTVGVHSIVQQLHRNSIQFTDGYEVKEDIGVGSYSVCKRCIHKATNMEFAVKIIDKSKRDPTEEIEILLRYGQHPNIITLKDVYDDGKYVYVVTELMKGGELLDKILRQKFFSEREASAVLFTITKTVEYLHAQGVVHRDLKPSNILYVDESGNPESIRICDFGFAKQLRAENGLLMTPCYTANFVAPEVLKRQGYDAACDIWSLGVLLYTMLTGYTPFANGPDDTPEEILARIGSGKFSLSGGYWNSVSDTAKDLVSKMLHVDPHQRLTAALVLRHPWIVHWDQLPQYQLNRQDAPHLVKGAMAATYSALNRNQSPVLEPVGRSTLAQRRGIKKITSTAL

[4] = biological target: T3, protein kinases (human kinome) (Homo sapiens, UniProt Q8TAS1)
T3 sequence (Q8TAS1 1-419): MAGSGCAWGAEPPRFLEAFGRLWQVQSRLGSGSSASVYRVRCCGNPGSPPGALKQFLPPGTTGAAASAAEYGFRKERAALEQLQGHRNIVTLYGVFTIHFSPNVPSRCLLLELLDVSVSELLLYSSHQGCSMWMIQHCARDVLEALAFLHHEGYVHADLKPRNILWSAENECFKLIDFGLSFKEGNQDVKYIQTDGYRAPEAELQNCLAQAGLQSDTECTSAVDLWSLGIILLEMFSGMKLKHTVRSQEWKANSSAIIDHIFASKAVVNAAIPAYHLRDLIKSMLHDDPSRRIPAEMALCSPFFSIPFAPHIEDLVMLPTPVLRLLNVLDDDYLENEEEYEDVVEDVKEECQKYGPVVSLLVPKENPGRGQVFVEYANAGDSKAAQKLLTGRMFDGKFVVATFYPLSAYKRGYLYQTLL

[5] = biological target: T4, protein kinases (human kinome) (Homo sapiens, UniProt Q96L34); details: for logFC MARK4: Accession Q96L34-1
T4 sequence (Q96L34 1-752): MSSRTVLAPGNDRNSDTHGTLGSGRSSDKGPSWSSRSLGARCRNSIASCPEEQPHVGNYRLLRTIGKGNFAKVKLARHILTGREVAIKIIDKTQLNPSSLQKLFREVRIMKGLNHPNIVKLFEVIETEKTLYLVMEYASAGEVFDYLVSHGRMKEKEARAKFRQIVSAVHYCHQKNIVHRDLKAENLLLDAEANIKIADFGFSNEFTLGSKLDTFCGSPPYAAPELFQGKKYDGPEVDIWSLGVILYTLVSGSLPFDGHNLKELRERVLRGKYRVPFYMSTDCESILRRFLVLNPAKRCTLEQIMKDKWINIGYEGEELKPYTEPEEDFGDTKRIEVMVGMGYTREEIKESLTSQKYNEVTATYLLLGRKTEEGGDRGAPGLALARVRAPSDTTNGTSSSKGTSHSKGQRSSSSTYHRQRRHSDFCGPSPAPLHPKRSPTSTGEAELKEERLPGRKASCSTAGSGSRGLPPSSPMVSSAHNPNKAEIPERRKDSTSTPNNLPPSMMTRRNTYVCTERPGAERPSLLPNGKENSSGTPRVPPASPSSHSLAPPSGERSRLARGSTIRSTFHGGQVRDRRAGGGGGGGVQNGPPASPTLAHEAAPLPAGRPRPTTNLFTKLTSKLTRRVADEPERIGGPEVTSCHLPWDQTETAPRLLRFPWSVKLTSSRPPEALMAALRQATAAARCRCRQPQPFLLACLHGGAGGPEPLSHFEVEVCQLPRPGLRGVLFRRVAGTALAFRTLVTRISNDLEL

## CC(=O)c1c(C)c2cnc(Nc3ccc(N4CCN(CCOCCOCCOCCNC(=O)COc5cccc6c5C(=O)N(C5CCC(=O)NC5=O)C6=O)CC4)cn3)nc2n(C2CCCC2)c1=O (centres unmarked) [BSJ.03.123]
[1]; experiment wp084
  logFC NADK2: −0.4839

## CN(C)C(=O)c1cc2cnc(Nc3ccc(N4CCN(CCCCNC(=O)COc5cccc6c5C(=O)N(C5CCC(=O)NC5=O)C6=O)CC4)cn3)nc2n1C1CCCC1 (centres unmarked) [BSJ.04.132]
[1]; experiment wp084
  logFC NADK2: −0.5591
[2]; experiment wp084
  logFC TBRG4: −0.6395

## CC(C)(C)c1nc(-c2cccc(NS(=O)(=O)c3c(F)cccc3F)c2F)c(-c2ccnc(NCCOCCNC(=O)CCOCCOCCNc3cccc4c3C(=O)N(C3CCC(=O)NC3=O)C4=O)n2)s1 (centres unmarked) [DD.03.106]
[1]; experiment wp147, 4 uM
  logFC NADK2: −0.6976
[2]; experiment wp147, 4 uM
  logFC TBRG4: −0.7514

## CC(C)(C)c1nc(-c2cccc(NS(=O)(=O)c3c(F)cccc3F)c2F)c(-c2ccnc(NCCOCCNC(=O)CCOCCOCCNc3cccc4c3CN(C3CCC(=O)NC3=O)C4=O)n2)s1 (centres unmarked) [DD.03.107]
[1]; experiment wp147, 1 uM
  logFC NADK2: −0.5404
[1]; experiment wp147, 2 uM
  logFC NADK2: −0.4442
[1]; experiment wp147, 4 uM
  logFC NADK2: −0.9504
[2]; experiment wp147, 1 uM
  logFC TBRG4: −0.6245
[2]; experiment wp147, 2 uM
  logFC TBRG4: −0.6284
[2]; experiment wp147, 4 uM
  logFC TBRG4: −1.105

## O=C(COc1cccc2c1C(=O)N(C1CCC(=O)NC1=O)C2=O)NCCCCCCCC(=O)NC1(c2ccc(-c3nc4ccn5c(=O)[nH]nc5c4cc3-c3ccccc3)cc2)CCC1 (centres unmarked) [INY.01.140.1]
[1]; experiment wp081
  logFC NADK2: −0.3886
[2]; experiment wp081
  logFC TBRG4: −0.4208

## CNC(=O)c1ccccc1Nc1cc(Nc2ccc(N3CCN(CCOCCOCCNC(=O)CNc4cccc5c4C(=O)N(C4CCC(=O)NC4=O)C5=O)CC3)cc2OC)ncc1C(F)(F)F (centres unmarked) [MFH.5.103.1]
[3]
  logFC: −1.165
[3]; direction down
  logFC: −1.165
[2]; experiment wp076
  logFC TBRG4: −0.3858

## CC(C)S(=O)(=O)c1ccccc1Nc1nc(Nc2ccc(N3CCN(CCOCCNC(=O)CNc4cccc5c4C(=O)N(C4CCC(=O)NC4=O)C5=O)CC3)cc2)ncc1Cl (centres unmarked) [SK.3.91]
[1]; experiment wp160, 1 hr
  logFC NADK2: −0.698
[4]; Accession Q8TAS1, experiment wp160, 2 hr, direction down
  logFC UHMK1: −0.4144
[4]; Accession Q8TAS1, experiment wp160, 4 hr, direction down
  logFC UHMK1: −0.3959
[4]; UHMK1 (Q8TAS1), experiment wp160, 2 hr
  logFC UHMK1: −0.4144
[4]; UHMK1 (Q8TAS1), experiment wp160, 4 hr
  logFC UHMK1: −0.3959
[2]; experiment wp160, 1 hr
  logFC TBRG4: −0.9113
[5]; experiment wp103
  logFC MARK4: −1.326
  logFC MARK4 (Q96L34-1): −1.326
[5]; experiment wp107
  logFC MARK4: −1.292
  logFC MARK4 (Q96L34-1): −1.292
[5]; experiment wp114
  logFC MARK4: −1.3
  logFC MARK4 (Q96L34-1): −1.3
[5]; experiment wp133, 2 hr
  logFC MARK4: −0.6282
  logFC MARK4 (Q96L34-1): −0.6282
[5]; experiment wp133, 4 hr
  logFC MARK4: −1.537
  logFC MARK4 (Q96L34-1): −1.537
[5]; experiment wp160, 4 hr
  logFC MARK4: −1.529
  logFC MARK4 (Q96L34-1): −1.529

## C=CCn1c(=O)c2cnc(Nc3ccc(N4CCN(CCCNc5cccc6c5C(=O)N(C5CCC(=O)NC5=O)C6=O)CC4)cc3)nc2n1-c1cccc(C(C)(C)O)n1 (centres unmarked) [ZNL.02.096]
[1]; experiment wp118
  logFC NADK2: −0.4004

Source: US20240269139A1, “COMPOUNDS FOR TARGETED PROTEIN DEGRADATION OF KINASES” (DANA-FARBER CANCER INSTITUTE, INC., priority 2020, published 2024)
